Assay results as given in PubChem BioAssay AID330 (DTP/NCI, 2004).
“And” between values parts separate entries of the source, which are not always exact repeats. Equal values may be shown once. Toxic doses and inconclusive results are not listed.

Tested on: P388 leukemia ip, CD2F1 mice, survival T/C
Test: NCI In Vivo Anticancer Drug Screen. Data for tumor model P388 Leukemia (intraperitoneal) in CD2F1 (CDF1) mice
Details: endpoint: median survival time, higher = longer survival
Procedure, shortened: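 Mice carrying the transplanted tumor received test compound or vehicle. Survival was recorded in each group, and the value is the treated-group measurement divided by that of the vehicle-treated control group.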

[1] = dose: 100.0 mg/kg/injection, schedule: Q04DX002 (ip), vehicle: saline with Tween-80
[2] = dose: 200.0 mg/kg/injection, schedule: Q04DX002 (ip), vehicle: saline with Tween-80
[3] = dose: 400.0 mg/kg/injection, schedule: Q04DX002 (ip), vehicle: saline with Tween-80
[4] = dose: 50.0 mg/kg/injection, schedule: Q01DX005 (ip), vehicle: Klucel (hydroxypropylcellulose) (HPC)
[5] = dose: 100.0 mg/kg/injection, schedule: Q01DX005 (ip), vehicle: Klucel (hydroxypropylcellulose) (HPC)
[6] = dose: 60.0 mg/kg/injection, schedule: Q01DX005 (ip), vehicle: Klucel (hydroxypropylcellulose) (HPC)
[7] = dose: 120.0 mg/kg/injection, schedule: Q01DX005 (ip), vehicle: Klucel (hydroxypropylcellulose) (HPC)
[8] = dose: 240.0 mg/kg/injection, schedule: Q01DX005 (ip), vehicle: Klucel (hydroxypropylcellulose) (HPC)
[9] = dose: 6.25 mg/kg/injection, schedule: Q01DX009 (ip), vehicle: Klucel (hydroxypropylcellulose) (HPC)
[10] = dose: 12.5 mg/kg/injection, schedule: Q01DX009 (ip), vehicle: Klucel (hydroxypropylcellulose) (HPC)
[11] = dose: 50.0 mg/kg/injection, schedule: Q01DX009 (ip), vehicle: saline with Tween-80
[12] = dose: 100.0 mg/kg/injection, schedule: Q01DX009 (ip), vehicle: Klucel (hydroxypropylcellulose) (HPC)
[13] = dose: 200.0 mg/kg/injection, schedule: Q01DX009 (ip), vehicle: Klucel (hydroxypropylcellulose) (HPC)
[14] = dose: 200.0 mg/kg/injection, schedule: Q01DX009 (ip), vehicle: saline with Tween-80
[15] = dose: 60.0 mg/kg/injection, schedule: Q01DX005 (ip), vehicle: saline with Tween-80
[16] = dose: 50.0 mg/kg/injection, schedule: Q01DX009 (ip), vehicle: Klucel (hydroxypropylcellulose) (HPC)
[17] = dose: 120.0 mg/kg/injection, schedule: Q01DX005 (ip), vehicle: saline with Tween-80
[18] = dose: 240.0 mg/kg/injection, schedule: Q01DX005 (ip), vehicle: saline with Tween-80

With COC(=O)c1oc2c(c1C(=O)OC)c1ccccc1n2C(C)=O the T/C [1] was 102 % of control, the T/C [2] was 105 % of control and the T/C [3] was 100 % of control.
With CCC1(CC)CC1C(=O)O (stereo not given) the T/C [4] was 93 % of control, the T/C [5] was 89 % of control and the T/C (dose: 200.0 mg/kg/injection, schedule: Q01DX005 (ip), vehicle: Klucel (hydroxypropylcellulose) (HPC)) was 89 % of control.
In the case of Cc1ccccc1C1OC2=C(Nc3ccc(Cl)cc3N2)C1=O (stereo not given), the T/C [6] is reported as 101 % of control, the T/C [7] is reported as 91 % of control and the T/C [8] is reported as 101 % of control.
In the case of CC(C)OP(=S)(S)OC(C)C, the T/C (dose: 50.0 mg/kg/injection, schedule: Q01DX009 (ip), vehicle: saline) is reported as 114 % of control, the T/C (dose: 100.0 mg/kg/injection, schedule: Q01DX009 (ip), vehicle: saline) is reported as 118 % of control and the T/C (dose: 200.0 mg/kg/injection, schedule: Q01DX009 (ip), vehicle: saline) is reported as 97 % of control.
For CC1(C)O[Te]2(OC1(C)C)OC(C)(C)C(C)(C)O2, the T/C (dose: 3.12 mg/kg/injection, schedule: Q01DX001 (ip), vehicle: saline with Tween-80) was 100 % of control, the T/C (dose: 6.25 mg/kg/injection, schedule: Q01DX001 (ip), vehicle: saline with Tween-80) was 105 % of control and the T/C (dose: 100.0 mg/kg/injection, schedule: Q01DX001 (ip), vehicle: saline with Tween-80) was 93 % of control.
For O=C(O)c1c2c(nc3ccccc13)Cc1ccccc1-2, the T/C [9] was 97 % of control, the T/C (dose: 6.25 mg/kg/injection, schedule: Q01DX009 (ip), vehicle: water) was 101 % of control and the T/C [10] was 98 % of control. For the same compound, the T/C (dose: 12.5 mg/kg/injection, schedule: Q01DX009 (ip), vehicle: water) was 99 % of control and 109 % of control, the T/C (dose: 25.0 mg/kg/injection, schedule: Q01DX009 (ip), vehicle: Klucel (hydroxypropylcellulose) (HPC)) was 106 % of control and the T/C (dose: 25.0 mg/kg/injection, schedule: Q01DX009 (ip), vehicle: water) was 104 % of control and 110 % of control and 114 % of control. The T/C [11] was 110 % of control, the T/C (dose: 50.0 mg/kg/injection, schedule: Q01DX009 (ip), vehicle: water) was 115 % of control and 121 % of control and the T/C [12] was 160 % of control and 169 % of control. The T/C (dose: 100.0 mg/kg/injection, schedule: Q01DX009 (ip), vehicle: water) was 166 % of control and 172 % of control, the T/C [13] was 172 % of control and 179 % of control and the T/C [14] was 181 % of control. The T/C (dose: 200.0 mg/kg/injection, schedule: Q01DX009 (ip), vehicle: water) was 106 % of control.
For CCCC(=O)Nc1ccc([N+](=O)[O-])cc1OC, the T/C (dose: 100.0 mg/kg/injection, schedule: Q04DX003 (ip), vehicle: saline with Tween-80) was 88 % of control, the T/C (dose: 200.0 mg/kg/injection, schedule: Q04DX003 (ip), vehicle: saline with Tween-80) was 100 % of control and the T/C (dose: 400.0 mg/kg/injection, schedule: Q04DX003 (ip), vehicle: saline with Tween-80) was 100 % of control.
For Cc1ccc(C(N)=Nc2ccccc2)cc1, the T/C [15] was 100 % of control.
CCC(=O)Nc1ccc(C(=O)C(C)=O)cc1 was tested, and the T/C (dose: 8.0 mg/kg/injection, schedule: Q01DX009 (ip), vehicle: saline with Tween-80) was 104 % of control, the T/C (dose: 16.0 mg/kg/injection, schedule: Q01DX009 (ip), vehicle: saline with Tween-80) was 104 % of control and the T/C (dose: 32.0 mg/kg/injection, schedule: Q01DX009 (ip), vehicle: saline with Tween-80) was 99 % of control.
With O=C(Cc1c[nH]c2ccccc12)Nc1nncs1 the T/C [1] was 97 % of control, the T/C [2] was 97 % of control and the T/C [3] was 110 % of control.
CCCNc1ccnc(F)n1 was tested, and the T/C (dose: 12.5 mg/kg/injection, schedule: Q01DX005 (ip), vehicle: Klucel (hydroxypropylcellulose) (HPC)) was 100 % of control, the T/C (dose: 25.0 mg/kg/injection, schedule: Q01DX005 (ip), vehicle: Klucel (hydroxypropylcellulose) (HPC)) was 102 % of control and the T/C [4] was 106 % of control. The T/C [5] was 105 % of control.
For CC1CC(C)(C)N=C(CCC2CCCC23OCCO3)O1 (stereo not given), the T/C [11] was 100 % of control, the T/C (dose: 100.0 mg/kg/injection, schedule: Q01DX009 (ip), vehicle: saline with Tween-80) was 104 % of control and the T/C (dose: 100.0 mg/kg/injection, schedule: Q04DX003 (ip), vehicle: saline sonified) was 96 % of control. The T/C [14] was 95 % of control, the T/C (dose: 200.0 mg/kg/injection, schedule: Q04DX003 (ip), vehicle: saline sonified) was 96 % of control and the T/C (dose: 400.0 mg/kg/injection, schedule: Q04DX003 (ip), vehicle: saline sonified) was 100 % of control.
In the case of CCOC(=O)c1ccc(NC(=O)Nc2nnc(C)c(C)n2)cc1, the T/C [16] is reported as 92 % of control, the T/C [12] is reported as 88 % of control and the T/C [13] is reported as 88 % of control.
In the case of COc1ccc2c(c1O)-c1c(O)c(OC)cc3c1[C@H](C2)[N+](C)(C)CC3, the T/C (dose: 12.5 mg/kg/injection, schedule: Q04DX003 (ip), vehicle: saline) is reported as 109 % of control, the T/C (dose: 25.0 mg/kg/injection, schedule: Q04DX003 (ip), vehicle: saline) is reported as 114 % of control and the T/C (dose: 50.0 mg/kg/injection, schedule: Q04DX003 (ip), vehicle: saline) is reported as 98 % of control and 109 % of control. For the same compound, the T/C (dose: 100.0 mg/kg/injection, schedule: Q04DX003 (ip), vehicle: saline) was 113 % of control.
With CC(C)C1(C(=O)NNC(=O)CCCc2ccc(N(CCCl)CCCl)cc2)OC2(O)CCCCCN2C1=O (stereo not given) the T/C (dose: 6.25 mg/kg/injection, schedule: Q04DX003 (ip), vehicle: Klucel (hydroxypropylcellulose) (HPC)) was 109 % of control, the T/C (dose: 12.5 mg/kg/injection, schedule: Q04DX003 (ip), vehicle: Klucel (hydroxypropylcellulose) (HPC)) was 121 % of control and the T/C (dose: 100.0 mg/kg/injection, schedule: Q04DX003 (ip), vehicle: Klucel (hydroxypropylcellulose) (HPC)) was 184 % of control.
In the case of O=C(O)c1ccnc2nc[nH]c12, the T/C (dose: 100.0 mg/kg/injection, schedule: Q04DX002 (ip), vehicle: Klucel (hydroxypropylcellulose) (HPC)) is reported as 100 % of control, the T/C (dose: 200.0 mg/kg/injection, schedule: Q04DX002 (ip), vehicle: Klucel (hydroxypropylcellulose) (HPC)) is reported as 106 % of control and the T/C (dose: 400.0 mg/kg/injection, schedule: Q04DX002 (ip), vehicle: Klucel (hydroxypropylcellulose) (HPC)) is reported as 100 % of control.
N#C/C1=C(\C#N)CCC2(C#N)C3C=CC(O3)C2(C#N)CC1 (stereo not given) was tested, and the T/C (dose: 3.12 mg/kg/injection, schedule: Q01DX009 (ip), vehicle: Klucel (hydroxypropylcellulose) (HPC)) was 103 % of control, the T/C [9] was 100 % of control and the T/C [10] was 100 % of control.
For COc1cc2c(cc1[N+](=O)[O-])C(=O)C(Br)(Br)CCC2, the T/C [16] was 116 % of control and the T/C [12] was 119 % of control.
For O=c1[nH]cnc2c1nnn2C1OC(CO)C(O)C1O (stereo not given), the T/C (dose: 25.0 mg/kg/injection, schedule: Q01DX005 (ip), vehicle: saline) was 102 % of control and 105 % of control, the T/C (dose: 50.0 mg/kg/injection, schedule: Q01DX005 (ip), vehicle: saline) was 107 % of control and 111 % of control and the T/C (dose: 100.0 mg/kg/injection, schedule: Q01DX005 (ip), vehicle: saline) was 114 % of control and 118 % of control. The T/C (dose: 200.0 mg/kg/injection, schedule: Q01DX005 (ip), vehicle: saline) was 111 % of control and 116 % of control and the T/C (dose: 400.0 mg/kg/injection, schedule: Q01DX005 (ip), vehicle: saline) was 100 % of control.
For CC(=O)Oc1ccc(OC(C)=O)c2c(OC(C)=O)c(C3CCC(C)(C)O3)cc(OC(C)=O)c12 (stereo not given), the T/C (dose: 12.5 mg/kg/injection, schedule: Q04DX002 (ip), vehicle: saline with Tween-80) was 106 % of control and the T/C (dose: 25.0 mg/kg/injection, schedule: Q04DX002 (ip), vehicle: saline with Tween-80) was 118 % of control.
For CCCCC1(C#Cc2ccccc2)Sc2ccccc2N1C (stereo not given), the T/C [15] was 98 % of control, the T/C [17] was 101 % of control and the T/C [18] was 107 % of control.
With COC(=O)C1(CC(=O)c2ccco2)NC(=S)NC(=O)C1C#N (stereo not given) the T/C [15] was 98 % of control, the T/C [17] was 94 % of control and the T/C [18] was 93 % of control.
CCO/C=C(\C)CC1([N+](=O)[O-])C(=O)c2ccccc2C1=O was tested, and the T/C [6] was 107 % of control, the T/C [7] was 107 % of control and the T/C [8] was 117 % of control.
COC(=O)CC1(C(=O)OC)c2ccc3ccccc3c2N(C#N)C1CCCBr (stereo not given) was tested, and the T/C (dose: 100.0 mg/kg/injection, schedule: Q01DX001 (ip), vehicle: saline) was 109 % of control, the T/C (dose: 200.0 mg/kg/injection, schedule: Q01DX001 (ip), vehicle: saline) was 107 % of control and the T/C (dose: 400.0 mg/kg/injection, schedule: Q01DX001 (ip), vehicle: saline) was 100 % of control.
